Test [1] concerns the target AEA-DA lipid probe targets in Neuro2a cells (Mus musculus, UniProt Q99KQ4).
Test [2] has as its target T1, AEA-DA lipid probe targets in Neuro2a cells (Mus musculus, UniProt P10404).
T1 sequence (P10404 33-641): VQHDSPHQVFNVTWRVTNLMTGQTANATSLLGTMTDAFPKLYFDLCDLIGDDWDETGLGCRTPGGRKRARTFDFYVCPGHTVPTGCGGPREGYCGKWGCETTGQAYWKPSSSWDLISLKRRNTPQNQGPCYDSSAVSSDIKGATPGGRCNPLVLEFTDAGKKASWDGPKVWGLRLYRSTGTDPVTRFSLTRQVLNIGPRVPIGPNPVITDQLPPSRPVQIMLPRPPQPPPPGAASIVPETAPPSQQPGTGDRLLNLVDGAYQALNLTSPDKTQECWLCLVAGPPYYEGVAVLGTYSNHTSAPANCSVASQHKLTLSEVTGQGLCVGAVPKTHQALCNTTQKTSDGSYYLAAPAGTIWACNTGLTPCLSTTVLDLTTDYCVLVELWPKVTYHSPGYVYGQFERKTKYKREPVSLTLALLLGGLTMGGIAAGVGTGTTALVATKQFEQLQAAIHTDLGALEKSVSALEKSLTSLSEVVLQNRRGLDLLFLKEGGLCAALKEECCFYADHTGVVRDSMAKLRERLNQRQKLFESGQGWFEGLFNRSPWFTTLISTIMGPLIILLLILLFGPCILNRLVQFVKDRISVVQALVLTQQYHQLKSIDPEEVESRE

In test [3] the target is T2, AEA-DA lipid probe targets in Neuro2a cells (Mus musculus, UniProt Q9D024).
T2 sequence (Q9D024 21-483): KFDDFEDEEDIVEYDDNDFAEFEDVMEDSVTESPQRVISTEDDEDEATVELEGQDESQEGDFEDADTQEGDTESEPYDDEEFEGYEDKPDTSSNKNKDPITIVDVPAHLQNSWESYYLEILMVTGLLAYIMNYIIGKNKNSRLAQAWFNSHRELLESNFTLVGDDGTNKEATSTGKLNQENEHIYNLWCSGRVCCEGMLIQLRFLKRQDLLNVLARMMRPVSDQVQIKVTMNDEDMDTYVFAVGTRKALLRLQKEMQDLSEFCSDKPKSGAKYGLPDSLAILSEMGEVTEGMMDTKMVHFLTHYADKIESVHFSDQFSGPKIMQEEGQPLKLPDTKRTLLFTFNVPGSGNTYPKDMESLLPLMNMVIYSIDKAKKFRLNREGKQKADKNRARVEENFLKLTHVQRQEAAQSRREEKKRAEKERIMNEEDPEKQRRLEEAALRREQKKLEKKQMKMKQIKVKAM

Test [4] concerns the target T3, AEA-DA lipid probe targets in Neuro2a cells (Mus musculus, UniProt O88531).
T3 sequence (O88531 28-306): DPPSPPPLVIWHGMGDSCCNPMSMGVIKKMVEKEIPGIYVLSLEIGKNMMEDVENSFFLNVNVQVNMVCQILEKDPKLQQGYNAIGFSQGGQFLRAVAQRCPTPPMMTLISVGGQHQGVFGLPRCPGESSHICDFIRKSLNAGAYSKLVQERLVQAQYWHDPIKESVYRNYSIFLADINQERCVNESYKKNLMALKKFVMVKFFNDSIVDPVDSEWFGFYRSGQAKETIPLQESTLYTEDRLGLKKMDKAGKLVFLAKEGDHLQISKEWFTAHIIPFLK

Test [5] addresses AEA-DA lipid probe targets in Neuro2a cells (Mus musculus, UniProt P47867).
Test [6] concerns the target T4, AEA-DA lipid probe targets in Neuro2a cells (Mus musculus, UniProt O70503).
T4 sequence (O70503 1-312): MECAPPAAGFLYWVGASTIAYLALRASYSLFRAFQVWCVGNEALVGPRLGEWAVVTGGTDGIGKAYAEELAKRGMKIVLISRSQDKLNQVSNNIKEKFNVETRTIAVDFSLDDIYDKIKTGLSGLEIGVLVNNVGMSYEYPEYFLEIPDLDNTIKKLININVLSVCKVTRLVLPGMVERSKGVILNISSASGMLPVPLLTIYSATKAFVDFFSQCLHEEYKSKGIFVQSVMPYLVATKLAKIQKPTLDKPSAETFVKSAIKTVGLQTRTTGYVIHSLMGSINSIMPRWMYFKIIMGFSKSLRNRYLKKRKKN
As to conditions: for SILAC ratio, HSD17B12 (Q53GQ0): Neuro2a cells, AEA-DA probe.

In test [7] the target is T5, AEA-DA lipid probe targets in Neuro2a cells (Mus musculus, UniProt Q8BGC4).
T5 sequence (Q8BGC4 1-377): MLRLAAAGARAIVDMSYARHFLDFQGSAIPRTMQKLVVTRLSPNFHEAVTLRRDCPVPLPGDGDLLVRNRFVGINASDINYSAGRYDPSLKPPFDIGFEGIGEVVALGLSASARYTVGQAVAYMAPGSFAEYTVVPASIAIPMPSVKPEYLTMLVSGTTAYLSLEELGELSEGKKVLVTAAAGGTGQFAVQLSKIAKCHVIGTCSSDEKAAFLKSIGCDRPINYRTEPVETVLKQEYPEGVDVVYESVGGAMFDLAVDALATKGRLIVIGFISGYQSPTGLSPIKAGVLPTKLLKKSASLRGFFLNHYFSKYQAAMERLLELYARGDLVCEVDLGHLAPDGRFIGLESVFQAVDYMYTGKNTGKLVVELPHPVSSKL

In test [8] the target is AEA-DA lipid probe targets in Neuro2a cells (Mus musculus, UniProt Q64310).
Chain of AEA-DA lipid probe targets in Neuro2a cells (Mus musculus, UniProt Q64310) (Q64310 whole entry): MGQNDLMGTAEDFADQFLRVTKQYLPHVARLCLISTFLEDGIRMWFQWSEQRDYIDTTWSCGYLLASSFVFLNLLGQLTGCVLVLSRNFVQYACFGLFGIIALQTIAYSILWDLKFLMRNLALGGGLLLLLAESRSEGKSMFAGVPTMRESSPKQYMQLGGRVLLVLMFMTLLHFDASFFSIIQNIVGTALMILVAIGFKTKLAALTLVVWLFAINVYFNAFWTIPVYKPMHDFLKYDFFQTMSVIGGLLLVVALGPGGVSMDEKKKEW

This is an account of results in patent publication US10168342B2, “Lipid probes and uses thereof” (THE SCRIPPS RESEARCH INSTITUTE, priority 2015, dated 2019).

Structures are written as SMILES. Read-outs that look alike come from different tables or passages of the source.

Chain of AEA-DA lipid probe targets in Neuro2a cells (Mus musculus, UniProt Q99KQ4) (Q99KQ4 whole entry): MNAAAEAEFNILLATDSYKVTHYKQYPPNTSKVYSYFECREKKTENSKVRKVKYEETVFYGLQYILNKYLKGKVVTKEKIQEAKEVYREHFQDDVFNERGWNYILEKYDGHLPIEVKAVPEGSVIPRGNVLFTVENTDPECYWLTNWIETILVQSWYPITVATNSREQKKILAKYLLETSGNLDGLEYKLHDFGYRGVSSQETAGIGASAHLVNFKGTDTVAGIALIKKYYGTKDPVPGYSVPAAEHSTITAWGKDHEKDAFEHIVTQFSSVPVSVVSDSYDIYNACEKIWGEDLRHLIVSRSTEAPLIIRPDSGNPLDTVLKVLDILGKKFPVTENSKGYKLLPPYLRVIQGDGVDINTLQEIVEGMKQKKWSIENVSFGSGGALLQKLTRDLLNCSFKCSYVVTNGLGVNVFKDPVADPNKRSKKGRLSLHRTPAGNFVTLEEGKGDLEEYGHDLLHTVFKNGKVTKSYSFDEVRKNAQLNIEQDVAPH
Chain of AEA-DA lipid probe targets in Neuro2a cells (Mus musculus, UniProt P47867) (P47867 23-471): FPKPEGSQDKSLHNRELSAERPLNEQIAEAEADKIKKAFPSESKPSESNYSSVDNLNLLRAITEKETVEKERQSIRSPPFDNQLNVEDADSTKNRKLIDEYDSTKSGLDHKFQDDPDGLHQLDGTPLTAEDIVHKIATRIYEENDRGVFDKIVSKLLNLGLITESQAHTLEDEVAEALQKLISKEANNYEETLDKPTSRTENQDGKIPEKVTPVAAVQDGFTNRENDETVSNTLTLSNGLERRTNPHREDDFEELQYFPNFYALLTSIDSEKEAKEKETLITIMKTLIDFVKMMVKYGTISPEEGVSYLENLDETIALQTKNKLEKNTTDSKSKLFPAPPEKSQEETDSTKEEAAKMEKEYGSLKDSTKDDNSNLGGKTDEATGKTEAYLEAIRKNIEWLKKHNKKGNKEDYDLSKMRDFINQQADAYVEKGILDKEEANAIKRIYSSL

With `C=CCN(C)CCCCCCOc1ccc(C(=O)c2ccc(Br)cc2)c(F)c1` [Ro 48-8071, reference compound], the “SILAC ratio, Nampt” value in test [1] (competitor 25 μM) is given as 0.9. Besides, the “SILAC ratio MLV-related” value in test [2] (competitor 25 μM) amounted to 1.0. For the same compound, the “SILAC ratio, Ccdc47” value in test [3] (competitor 25 μM) was found to be 1.4. In test [4] (competitor 25 μM), the “SILAC ratio Ppt1” value is 1.6. The “SILAC ratio, Scg3” value in test [5] (competitor 25 μM) amounted to 0.9. Also, in test [6] (competitor 25 μM), the “SILAC ratio, HSD17B12 (Q53GQ0)” value amounted to 0.9 and the “SILAC ratio, Hsd17b12” value turned out to be 0.9. Moreover, in test [7] (competitor 25 μM), the “SILAC ratio, Zadh2” value amounted to 1.0. For the same compound, the “SILAC ratio Surf4” value in test [8] (competitor 25 μM) came to 1.1.

For `CN1CCN(C(=O)c2[nH]c3ccc([N+](=O)[O-])cc3c2-c2ccccc2)CC1` [MJN228, (4-Methylpiperazin-1-yl)(5-nitro-3-phenyl-1H-indol-2-yl)methanone], the “SILAC ratio, Nampt” value in test [1] (competitor 25 μM) came to 1.2; in test [1] (competitor 50 μM), 1.0. Moreover, the “SILAC ratio MLV-related” value is reported as 1.8 in test [2] (competitor 10 μM), 1.8 in test [2] (competitor 25 μM), 1.7 in test [2] (competitor 50 μM) and 2.5 in test [2] (competitor 100 μM). Besides, the “SILAC ratio, Ccdc47” value in test [3] (competitor 10 μM) came to 1.4; in test [3] (competitor 25 μM), 1.8; in test [3] (competitor 50 μM), 1.9; in test [3] (competitor 100 μM), 3.1. For the same compound, the “SILAC ratio Ppt1” value in test [4] (competitor 10 μM) turned out to be 1.5; in test [4] (competitor 25 μM), 1.5; in test [4] (competitor 50 μM) it was 2.1; in test [4] (competitor 100 μM) it was 4.3. Besides, the “SILAC ratio, Scg3” value is listed as 1.0 in test [5] (competitor 10 μM), 1.3 in test [5] (competitor 25 μM), 1.0 in test [5] (competitor 50 μM) and 0.8 in test [5] (competitor 100 μM). In addition, the “SILAC ratio, HSD17B12 (Q53GQ0)” value in test [6] (competitor 25 μM) stood at 1.6. Further, the “SILAC ratio, Hsd17b12” value was 1.2 in test [6] (competitor 10 μM), 1.6 in test [6] (competitor 25 μM), 1.7 in test [6] (competitor 50 μM) and 2.3 in test [6] (competitor 100 μM). For the same compound, the “SILAC ratio, Zadh2” value was 1.4 in test [7] (competitor 10 μM), 1.5 in test [7] (competitor 25 μM), 2.3 in test [7] (competitor 50 μM) and 6.0 in test [7] (competitor 100 μM). Moreover, the “SILAC ratio Surf4” value turned out to be 1.3 in test [8] (competitor 10 μM), 1.4 in test [8] (competitor 25 μM), 1.7 in test [8] (competitor 50 μM) and 2.0 in test [8] (competitor 100 μM).

On to `CCCCC/C=C\C/C=C\C/C=C\C/C=C\CCCC(=O)NCCO` [AEA, anandamide, reference compound], for which the “SILAC ratio, Nampt” value in test [1] (competitor 200 μM) came to 1.1. In addition, the “SILAC ratio MLV-related” value in test [2] (competitor 200 μM) is 1.4. Besides, the “SILAC ratio, Ccdc47” value in test [3] (competitor 200 μM) amounted to 1.7. The “SILAC ratio Ppt1” value in test [4] (competitor 200 μM) stood at 1.1. The “SILAC ratio, Scg3” value in test [5] (competitor 200 μM) came out at 1.2. Moreover, in test [6] (competitor 200 μM), the “SILAC ratio, HSD17B12 (Q53GQ0)” value is reported as 2.2 and the “SILAC ratio, Hsd17b12” value is recorded as 2.2. Moreover, in test [7] (competitor 200 μM), the “SILAC ratio, Zadh2” value is given as 4.8. Further, the “SILAC ratio Surf4” value in test [8] (competitor 200 μM) is given as 1.4.

Regarding `CN1CCN(C(=O)c2c(-c3ccccc3)c3cc([N+](=O)[O-])ccc3n2C)CC1` [KML110, (1-Methyl-5-nitro-3-phenyl-1H-indol-2-yl)(4-methylpiperazin-1-yl)methanone], the “SILAC ratio, Nampt” value in test [1] (competitor 25 μM) was found to be 2.0. The “SILAC ratio MLV-related” value in test [2] (competitor 25 μM) is 1.2. Also, the “SILAC ratio, Ccdc47” value in test [3] (competitor 25 μM) is 1.7. In addition, the “SILAC ratio Ppt1” value in test [4] (competitor 25 μM) was determined as 1.2. Further, in test [5] (competitor 25 μM), the “SILAC ratio, Scg3” value amounted to 1.0. Further, in test [6] (competitor 25 μM), the “SILAC ratio, Hsd17b12” value is 1.7. Further, in test [7] (competitor 25 μM), the “SILAC ratio, Zadh2” value is given as 1.5. The “SILAC ratio Surf4” value in test [8] (competitor 25 μM) was determined as 1.4.

In the case of `O=C(/C=C/c1cccnc1)NCCCCC1CCN(C(=O)c2ccccc2)CC1` [FK-866, reference compound], the “SILAC ratio, Nampt” value in test [1] (competitor 25 μM) is listed as 16.4. Further, the “SILAC ratio MLV-related” value in test [2] (competitor 25 μM) amounted to 1.1. The “SILAC ratio, Ccdc47” value in test [3] (competitor 25 μM) is given as 1.3. In test [4] (competitor 25 μM), the “SILAC ratio Ppt1” value was 0.8. Further, the “SILAC ratio, Scg3” value in test [5] (competitor 25 μM) is 1.0. For the same compound, in test [6] (competitor 25 μM), the “SILAC ratio, HSD17B12 (Q53GQ0)” value is recorded as 1.7 and the “SILAC ratio, Hsd17b12” value amounted to 1.7. In addition, the “SILAC ratio, Zadh2” value in test [7] (competitor 25 μM) is 12.6. In addition, in test [8] (competitor 25 μM), the “SILAC ratio Surf4” value was found to be 1.2.
